According to DBAASP:
In brackets after ≈: the same amount, converted by molar mass.

What was measured:
Test in all cases: ≥ marks a high value that may be exact or a test limit, other limits are often not marked, values filed in µg/mL are converted to µM
Bacillus subtilis = test system: Bacillus subtilis
[1] = test system: Enterococcus faecalis E1478F
[2] = test system: Staphylococcus aureus RN4220
Staphylococcus aureus = test system: Staphylococcus aureus
[3] = test system: Staphylococcus sciuri P254
Escherichia coli 45849 = test system: Escherichia coli 45849
Escherichia coli BL21AI = test system: Escherichia coli BL21AI
Escherichia coli D31 = test system: Escherichia coli D31
[4] = test system: Klebsiella pneumoniae 123132
[5] = test system: Klebsiella pneumoniae K6 ATCC 700603
[6] = test system: Salmonella enterica subsp. enterica serovar Typhi S5
[7] = test system: Salmonella enterica subsp. enterica serovar Typhimurium ATCC 700408
[8] = test system: Bacillus subtilis IFO 3037
[9] = test system: Escherichia coli IFO 14237
[10] = test system: Staphylococcus aureus IFO 12732
[11] = test system: Escherichia coli ATCC 11775
[12] = test system: Escherichia coli ATCC 25922
[13] = test system: Escherichia coli ATCC 35218
[14] = test system: Escherichia coli ATCC 43827
Escherichia coli ESBL 4 = test system: Escherichia coli ESBL 4
Escherichia coli ESBL = test system: Escherichia coli ESBL
[15] = test system: Pseudomonas aeruginosa ATCC 27853
Escherichia coli UB1005 = test system: Escherichia coli UB1005
[16] = test system: Lacticaseibacillus rhamnosus 1.0385
[17] = test system: Lacticaseibacillus rhamnosus 1.0386
[18] = test system: Lacticaseibacillus rhamnosus 1.0911
[19] = test system: Lacticaseibacillus rhamnosus 1.0925
[20] = test system: Lacticaseibacillus rhamnosus 7469
[21] = test system: Lactiplantibacillus plantarum 8014
[22] = test system: Staphylococcus aureus ATCC 29213
[23] = test system: Staphylococcus aureus ATCC 43300
[24] = test system: Staphylococcus epidermidis ATCC 12228
Citrobacter freundii = test system: Citrobacter freundii
Klebsiella pneumoniae = test system: Klebsiella pneumoniae
[25] = test system: Salmonella enterica subsp. enterica serovar Paratyphi A
[26] = test system: Staphylococcus haemolyticus
[27] = test system: Bacillus cereus ATCC 10876
[28] = test system: Enterococcus faecalis ATCC 29212
[29] = test system: Salmonella enterica subsp. enterica serovar Typhimurium ATCC 14028
[30] = test system: Staphylococcus aureus ATCC 6538
[31] = test system: Streptococcus agalactiae ATCC 27956
[32] = test system: Streptococcus dysgalactiae subsp. dysgalactiae ATCC 27957
[33] = test system: Streptococcus equi subsp. zooepidemicus ATCC 43079

CC[C@H](C)[C@H](NC(=O)[C@H](CC(C)C)NC(=O)[C@@H]1CCCN1C(=O)[C@H](CC(C)C)NC(=O)[C@@H](N)Cc1ccccc1)C(=O)NCC(=O)NCC(=O)N[C@@H](CC(C)C)C(=O)N[C@@H](CC(C)C)C(=O)N[C@@H](CO)C(=O)N[C@@H](CCCCN)C(=O)N[C@@H](CC(C)C)C(=O)N[C@@H](CC(C)C)C(N)=O [FLPLIGGLLSKLL]
MIC (Bacillus subtilis): 2.83 µM (≈ 3.91 µg/mL) | MIC [1]: 2.83 µM (≈ 3.91 µg/mL) | MIC [2]: ≥ 45.2 µM | MIC (Staphylococcus aureus): 45.2 µM (≈ 62.5 µg/mL) | MIC [3]: ≥ 45.2 µM

CC[C@H](C)[C@H](NC(=O)[C@H](Cc1ccc(O)cc1)NC(=O)[C@@H](NC(=O)[C@@H]1CCCN1C(=O)[C@H](CCCN=C(N)N)NC(=O)[C@H](CC(N)=O)NC(=O)[C@H](CC(N)=O)NC(=O)CN)C(C)C)C(=O)N1CCC[C@H]1C(=O)N[C@@H](CCC(N)=O)C(=O)N1CCC[C@H]1C(=O)N[C@@H](CCCN=C(N)N)C(=O)N1CCC[C@H]1C(=O)N1CCC[C@H]1C(=O)N[C@@H](Cc1cnc[nH]1)C(=O)N1CCC[C@H]1C(=O)N[C@@H](CCCN=C(N)N)C(=O)N[C@@H](CC(C)C)C(N)=O [GNNRPVYIPQPRPPHPRL]
MIC (Escherichia coli 45849): 0.237 µM (≈ 0.5 µg/mL) | MIC (Escherichia coli BL21AI): 0.237 µM (≈ 0.5 µg/mL) | MIC (Escherichia coli D31): 0.474 µM (≈ 1 µg/mL) | MIC [4]: 7.59 µM (≈ 16 µg/mL) | MIC [5]: 7.59 µM (≈ 16 µg/mL) | MIC [6]: 0.0593 µM (≈ 0.125 µg/mL) | MIC [7]: 0.0593 µM (≈ 0.125 µg/mL)

CC[C@H](C)[C@H](N)C(=O)N[C@H](C(=O)NCC(=O)N[C@@H](CC(C)C)C(=O)N[C@H](C(=O)N[C@@H](CO)C(=O)N[C@@H](CCCCN)C(=O)NCC(=O)N[C@H](C(=O)N[C@H]1CSSC[C@@H](C(=O)N[C@@H](CCCCN)C(=O)N[C@@H](CCCCN)C(=O)N[C@H](C(=O)N[C@@H](CC(C)C)C(=O)N[C@@H](CCCCN)C(=O)N[C@@H](CCC(N)=O)C(N)=O)C(C)C)NC(=O)[C@H](C(C)C)NC(=O)[C@H]([C@@H](C)O)NC(=O)[C@H](CCCCN)NC(=O)[C@H](C(C)C)NC(=O)[C@H](CC(C)C)NC(=O)[C@H](C(C)C)NC1=O)[C@@H](C)O)C(C)C)[C@@H](C)CC [IIGLVSKGTCVLVKTVCKKVLKQ]
MIC [8]: ≥ 50 µM | MIC [9]: 25 µM (≈ 61.4 µg/mL) | MIC [10]: 25 µM (≈ 61.4 µg/mL)

CC[C@H](C)[C@H](NC(=O)[C@H](Cc1ccc(O)cc1)NC(=O)[C@H](CCC(N)=O)NC(=O)[C@H](CC(C)C)NC(=O)[C@H](C)NC(=O)[C@H](CCCCN)NC(=O)[C@H](CCCCN)NC(=O)[C@H](CCSC)NC(=O)[C@H](CCCCN)NC(=O)[C@H](CCCCN)NC(=O)[C@@H](N)CCCCN)C(=O)N[C@@H](CCCCN)C(=O)N[C@@H](CC(C)C)C(=O)N[C@@H](CC(C)C)C(=O)N[C@@H](CCCCN)C(=O)N[C@@H](CCC(=O)O)C(N)=O [KKKMKKALQYIKLLKE]
MIC [11]: ≥ 100 µM | MIC [12]: 25 µM (≈ 49.7 µg/mL) | MIC [13]: 12.5 µM (≈ 24.9 µg/mL) | MIC [14]: 6 µM (≈ 11.9 µg/mL) | MIC (Escherichia coli ESBL 4): ≥ 100 µM | MIC (Escherichia coli ESBL): ≥ 50 µM | MIC [15]: > 100 µM

NC(=O)C[C@H](NC(=O)[C@H](Cc1c[nH]c2ccccc12)NC(=O)[C@H](Cc1c[nH]c2ccccc12)NC(=O)[C@H](Cc1c[nH]c2ccccc12)NC(=O)[C@H](CC(N)=O)NC(=O)[C@H](Cc1c[nH]c2ccccc12)NC(=O)[C@H](CCCN=C(N)N)NC(=O)[C@@H](N)CCCN=C(N)N)C(=O)N[C@@H](Cc1c[nH]c2ccccc12)C(=O)N[C@@H](CCCN=C(N)N)C(=O)N[C@@H](CCCN=C(N)N)C(N)=O [RRWNWWWNWRR]
MIC [12]: > 64 µM | MIC (Escherichia coli UB1005): ≥ 64 µM | MIC [16]: ≥ 64 µM | MIC [17]: ≥ 64 µM | MIC [18]: ≥ 64 µM | MIC [19]: ≥ 64 µM | MIC [20]: ≥ 64 µM | MIC [21]: ≥ 64 µM | MIC [15]: > 64 µM | MIC [22]: > 64 µM | MIC [23]: > 64 µM | MIC [24]: > 64 µM

CC(C)C[C@H](NC(=O)[C@H](CCCCN)NC(=O)[C@H](CC(C)C)NC(=O)[C@H](CCCCN)NC(=O)[C@H](CS)NC(=O)[C@H](CC(C)C)NC(=O)[C@H](Cc1c[nH]c2ccccc12)NC(=O)CNC(=O)[C@H](CCCCN)NC(=O)[C@H](CS)NC(=O)[C@@H]1CCCN1C(=O)[C@H](CCCCN)NC(=O)[C@H](CCCN=C(N)N)NC(=O)[C@H](CCCN=C(N)N)NC(=O)[C@H](CO)NC(=O)[C@@H](N)CO)C(=O)N[C@@H](CCCN=C(N)N)C(=O)O [SSRRKPCKGWLCKLKLR]
MIC (Citrobacter freundii): 2.91 µM (≈ 6 µg/mL) | MIC (Klebsiella pneumoniae): 2.06 µM (≈ 4.24 µg/mL) | MIC [25]: 5.83 µM (≈ 12 µg/mL) | MIC [26]: 1.46 µM (≈ 3 µg/mL)

CC[C@H](C)[C@H](NC(=O)CNC(=O)[C@H](CCCN=C(N)N)NC(=O)[C@H](CCCCN)NC(=O)[C@H](CO)NC(=O)[C@H](CCCN=C(N)N)NC(=O)[C@H](CCCN=C(N)N)NC(=O)[C@@H](N)C(C)C)C(=O)N[C@@H](CCCCN)C(=O)N[C@H](C(=O)N1CCC[C@H]1C(=O)N[C@@H](CO)C(=O)N[C@@H](Cc1ccccc1)C(=O)N[C@H](C(=O)N[C@@H](CCCCN)C(=O)N[C@@H](CCCCN)C(=O)N[C@H](C(=O)N[C@@H](CC(C)C)C(=O)N[C@@H](CCCCN)C(=O)N[C@@H](CC(=O)O)C(=O)N[C@H](C(=O)N[C@H](C(=O)N[C@@H](CO)C(=O)N[C@@H](CCC(=O)O)C(=O)N[C@@H](CO)C(=O)N[C@H](C(=O)N[C@@H](CO)C(=O)O)[C@@H](C)CC)C(C)C)C(C)C)C(C)C)C(C)C)C(C)C [VRRSKRGIKVPSFVKKVLKDVVSESIS]
MIC [27]: 10.5 µM (≈ 32 µg/mL) | MIC [28]: > 10.5 µM | MIC [12]: 1.64 µM (≈ 5 µg/mL) | MIC [15]: > 10.5 µM | MIC [29]: > 10.5 µM | MIC [30]: > 10.5 µM | MIC [31]: 13.2 µM (≈ 40.2 µg/mL) | MIC [32]: 13.2 µM (≈ 40.2 µg/mL) | MIC [33]: 13.2 µM (≈ 40.2 µg/mL)
